The results in this text go back to ChEMBL document CHEMBL1212761, “Biologic activities of the TolC-like protein of Neisseria meningitidis as assessed by functional complementation in Escherichia coli” (2010).

What all share (type): functional
The subject of assay [1] is Escherichia coli. Nature of the assay: Antimicrobial activity against Escherichia cloi RAM1129 transfected with pGCC4 containg IPTG-inducible lacZ promoter by agar dilution method. Background: In agar dilution the substance is mixed into plates at graded concentrations.
Assay [2] deals with Escherichia coli. Nature of the assay: Antimicrobial activity against Escherichia cloi RAM1129 transfected with pNK1 containg Neisseria meningitidis tolC gene by agar dilution method.
The subject of assay [3] is Escherichia coli. Nature of the assay: Antimicrobial activity against Escherichia cloi RAM4100 transfected with pGCC4 containg IPTG-inducible lacZ promoter by agar dilution method.
For assay [4], the system named is Escherichia coli. Nature of the assay: Antimicrobial activity against Escherichia cloi RAM4100 transfected with pNK1 containg Neisseria meningitidis tolC gene by agar dilution method.
Assay [5] has as its system Escherichia coli. As to the kind of experiment: Antimicrobial activity against Escherichia coli RAM4100 by agar dilution method.
Assay [6] has as its system Escherichia coli. Nature of the assay: Antimicrobial activity against Escherichia coli RAM1129 by agar dilution method.
The test system of assay [7] is Neisseria meningitidis. Nature of the assay: Antimicrobial activity against Neisseria meningitidis M7 by agar dilution method.
In assay [8] the test system is Neisseria meningitidis. Nature of the assay: Antimicrobial activity against Neisseria meningitidis M7tolC::Kan by agar dilution method.
For assay [9], the system named is Neisseria meningitidis. As to the kind of experiment: Antimicrobial activity against Neisseria meningitidis M7mtrE::Spc by agar dilution method.
The test system of assay [10] is Neisseria meningitidis. Nature of the assay: Antimicrobial activity against Neisseria meningitidis M7tolC::Kan mtr::Spc by agar dilution method.

≈ marks a conversion by molar mass, not a printed value.

With `CC[C@H]1OC(=O)[C@H](C)[C@@H](O[C@H]2C[C@@](C)(OC)[C@@H](O)[C@H](C)O2)[C@H](C)[C@@H](O[C@@H]2O[C@H](C)C[C@H](N(C)C)[C@H]2O)[C@](C)(O)C[C@@H](C)C(=O)[C@H](C)[C@@H](O)[C@]1(C)O` [ERYTHROMYCIN], the MIC against Escherichia coli [1] worked out at 5 µg/mL (≈ 6.81 µM); in the assay with Escherichia coli [2], 5 µg/mL (≈ 6.81 µM); against Escherichia coli [3], 300 µg/mL (≈ 409 µM); in the assay with Escherichia coli [4], 300 µg/mL (≈ 409 µM).
Regarding `CN(C)c1ccc(C(=C2C=CC(=[N+](C)C)C=C2)c2ccc(N(C)C)cc2)cc1.[Cl-]` [GENTIAN VIOLET], the MIC in the assay with Escherichia coli [5] is over 40 µg/mL; in the assay on Escherichia coli [6], 1.5 µg/mL; with Escherichia coli [1], 1.5 µg/mL; with Escherichia coli [2], over 40 µg/mL.
As for `CC[C@H]1OC(=O)[C@H](C)[C@@H](O[C@H]2C[C@@](C)(OC)[C@@H](O)[C@H](C)O2)[C@H](C)[C@@H](O[C@@H]2O[C@H](C)C[C@H](N(C)C)[C@H]2O)[C@](C)(O)C[C@@H](C)CN(C)[C@H](C)[C@@H](O)[C@]1(C)O` [AZITHROMYCIN], the MIC against Neisseria meningitidis [7] turned out to be 2 µg/mL (≈ 2.67 µM); with Neisseria meningitidis [8], 2 µg/mL (≈ 2.67 µM); with Neisseria meningitidis [9] it was 0.125 µg/mL (≈ 0.167 µM); in the assay with Neisseria meningitidis [10], 0.125 µg/mL (≈ 0.167 µM).
On to `CC[C@H](C)[C@H](NC(=O)[C@H](CCCCN)NC(=O)[C@H](CCC(=O)O)NC(=O)[C@H](CCCCN)NC(=O)[C@H](CO)NC(=O)[C@H](CCCCN)NC(=O)[C@H](CCCNC(=N)N)NC(=O)[C@H](Cc1ccccc1)NC(=O)[C@H](Cc1ccccc1)NC(=O)[C@H](CC(=O)O)NC(=O)CNC(=O)[C@H](CC(C)C)NC(=O)[C@@H](N)CC(C)C)C(=O)NCC(=O)N[C@@H](CCCCN)C(=O)N[C@@H](CCC(=O)O)C(=O)N[C@@H](Cc1ccccc1)C(=O)N[C@@H](CCCCN)C(=O)N[C@@H](CCCNC(=N)N)C(=O)N[C@H](C(=O)N[C@H](C(=O)N[C@@H](CCC(N)=O)C(=O)N[C@@H](CCCNC(=N)N)C(=O)N[C@H](C(=O)N[C@@H](CCCCN)C(=O)N[C@@H](CC(=O)O)C(=O)N[C@@H](Cc1ccccc1)C(=O)N[C@@H](CC(C)C)C(=O)N[C@@H](CCCNC(=N)N)C(=O)N[C@@H](CC(N)=O)C(=O)N[C@@H](CC(C)C)C(=O)N[C@H](C(=O)N1CCC[C@H]1C(=O)N[C@@H](CCCNC(=N)N)C(=O)N[C@H](C(=O)N[C@@H](CCC(=O)O)C(=O)N[C@@H](CO)C(=O)O)[C@@H](C)O)C(C)C)[C@@H](C)CC)C(C)C)[C@@H](C)CC` [CATHELICIDIN], for which the MIC in the assay with Neisseria meningitidis [7] came to 7.8 µg/mL (≈ 1.74 µM); against Neisseria meningitidis [8], 7.8 µg/mL (≈ 1.74 µM); in the assay on Neisseria meningitidis [9] it was 1.98 µg/mL (≈ 0.441 µM); against Neisseria meningitidis [10], 1.98 µg/mL (≈ 0.441 µM).
With `CO[C@@H]1[C@@H](OC(N)=O)[C@@H](O)[C@H](Oc2ccc3c(O)c(NC(=O)c4ccc(O)c(CC=C(C)C)c4)c(=O)oc3c2C)OC1(C)C` [NOVOBIOCIN], the MIC in the assay with Escherichia coli [5] was determined as 500 µg/mL (≈ 816 µM); against Escherichia coli [6], 40 µg/mL (≈ 65.3 µM); against Escherichia coli [1], 40 µg/mL (≈ 65.3 µM); in the assay with Escherichia coli [2] it was 500 µg/mL (≈ 816 µM).
`O=C(O)c1cn(C2CC2)c2cc(N3CCNCC3)c(F)cc2c1=O` [CIPROFLOXACIN]: the minimum inhibitory concentration (MIC) with Neisseria meningitidis [7], against Neisseria meningitidis [8], with Neisseria meningitidis [9] and against Neisseria meningitidis [10] was 0.02 µg/mL (≈ 0.0604 µM) throughout.
Consider `CC[n+]1c(-c2ccccc2)c2cc(N)ccc2c2ccc(N)cc21.[Br-]` [HOMIDIUM BROMIDE], for which the minimum inhibitory concentration (MIC) in the assay on Neisseria meningitidis [7] was 12 µg/mL; against Neisseria meningitidis [8] it was 12 µg/mL; against Neisseria meningitidis [9] it was 0.75 µg/mL; in the assay with Neisseria meningitidis [10], 0.75 µg/mL; with Escherichia coli [5], over 200 µg/mL; against Escherichia coli [6] it was 5 µg/mL. Further, the values for the MIC in the assay with Escherichia coli [1] and with Escherichia coli [2] were 5 µg/mL and over 200 µg/mL, respectively.
For `CCCCCCCCCCCCCCCC(=O)O` [PALMITIC ACID], the MIC was found to be 400 µg/mL (≈ 1560 µM) in the assay on Neisseria meningitidis [7], 400 µg/mL (≈ 1560 µM) in the assay on Neisseria meningitidis [8], 50 µg/mL (≈ 195 µM) in the assay on Neisseria meningitidis [9] and 50 µg/mL (≈ 195 µM) against Neisseria meningitidis [10].

Broadly, the MIC is the lowest concentration found to suppress growth.
